Key:
Dictyocaulus viviparus = test: In vitro nematicidal effect of hydrogen sulfide and chitinase, egg hatching; type: cell-based; details: Dictyocaulus eggs, emerging larvae after 24 hours; fraction E = 1 − Ntto/Nc; mean of 4 replicas
Method: (§1) Eggs from zoonematodes Haemonchus spp and Trichostrongylus colubriformis and Dictyocaulus viviparus were used, as well as parasitic phytonematode larvae (juveniles 2) from Melodoigyne incognita.
Collections of D. viviparous nematode were made from the infested lung of a bovine (cattle), previously sacrificed. The same procedure was used for Haemochus spp. and T. colubriformis; however, the females were allowed to lay their eggs for 2-3 hours.
(§2) From that moment on, manipulation was done under aseptic conditions in a vertical laminar flow, using 24-well tissue culture plates. The total volume of the medium that contained the females and the eggs was filtered with a sift net of 60 μm. The nematode eggs were trapped on the 30 μm net of a second sifts. It was introduced into a Hibitane solution at 0.5% for 3 minutes, followed by three washes with LB medium diluted 10 times in sterile distilled water.
(§3) Once disinfected, the eggs were removed from the sift and were carefully resuspended with a LB medium solution diluted 10 times in sterile distilled water. The final result of the distribution was checked by counting and registering the eggs in each well with an inverted Olympus microscope, observations of the uniformity of the evolutionary state in this phase were made too.
(§4) The Haemonchus spp and T. colubriformis' eggs hatch between 24 and 48 hours of incubation at 28° C., whereas the D. vivparus' eggs hatch before 24 hours. A good sample preparation is accomplished when in all the untreated controls more than 60% of hatching occurs in the previously foreseen times for each species.
(§5) The nematode's eggs and larvae were placed in a number of 100 individuals in approximately 2 ml of LB medium diluted 10 times. This volume was introduced into safety valves that allow the air to go through the liquid and, therefore, the gasses make contact with the eggs and larvae. […]
(§6) Twenty-four hours after starting the experiment the emerging larvae (Haemonchus sp., T. colubriformis and D. viviparous) and the number of live larvae (Melodogyne incognita) in all the treatments, were counted. […]

Melodoigyne incognita = test: In vitro nematicidal effect of hydrogen sulfide and chitinase, live larvae (juveniles 2); type: cell-based, Meloidogyne incognita; details: Meloidogyne larvae, live larvae after 24 hours; fraction E = 1 − Ntto/Nc; mean of 4 replicas
Method: as §1
The collection of egg mass of Meloidogyne incognita was performed from squash roots (Cucurbita pepo), previously infested and cultivated in greenhouses. For this operation a stereoscope microscope and needles with properly altered tips were used. The masses were put in sterile distilled water in Petri dishes at 28° C., in a number of 50 masses per dish. Daily observations were made to check egg hatching. In approximately 72 hours, there were enough larvae to start collecting and disinfecting.
The total volume of water containing the egg masses and the larvae were filtered through a sift net of 60 μm. From that moment on all the manipulation was done under aseptic conditions in a vertical laminar flow, using 24-well tissue culture plates. The eggs detached from the mass were unable to hatch and remained on the sift net of 30 μm; the larvae were collected with a further net of 5 μm. It was introduced into a Hibitane solution at 0.5% for 3 minutes followed by 3 washes with LB medium diluted 10 times in sterile distilled water. Once disinfected, the Meloidogyne incognita larvae were removed from the sift net and carefully resuspended with a LB medium solution diluted 10 times in sterile distilled water. The final collecting and disinfecting results were checked by counting and registering the live larvae with an inverted Olympus microscope.
as §5, with “larvae. Every valve was a replica for each treatment.” for “larvae.”
as §6

[1] = tested on: Trichostrongylus colubriformis; test: In vitro nematicidal effect of hydrogen sulfide and chitinase, egg hatching; type: cell-based; details: Trichostrongilus eggs, emerging larvae after 24 hours; fraction E = 1 − Ntto/Nc; mean of 4 replicas
Method: as §1
(§7) Collections of Haemonchus spp and Trichostrongylus colubriformis nematodes were made from ovine (sheep) and bovine (cattle) abomasa, respectively. The adult female nematodes were washed in a physiological solution and treated with “Hibitane” (Chlorhexidine Acetate) at 0.5%, for 1 minute, the process developed at 37° C. Approximately 100 previously disinfected individuals were introduced into an Erlenmeyer containing 50 ml of LB medium solution, diluted 10 times in distilled sterile water, and were left laying their eggs overnight (8-10 hours).
as §2, §3, §4
(§8) The nematode's eggs and larvae were placed in a number of 100 individuals in approximately 2 ml of LB medium diluted 10 times. This volume was introduced into safety valves that allow the air to go through the liquid and, therefore, the gasses make contact with the eggs and larvae. Every valve was a replica for each treatment.
(§9) The hydrogen sulfide was obtained by a reaction against the chloride acid of two sulfide salts (Na2S and FeS), and from an anaerobial fermentation of bacterium Desulfovibrio desulfuricans subs. desulfuricans ATCC 27774 (isolated from an ovine rumen). The chitinolytic enzyme used was chitinase SIGMA C 1650, from bacterium Serratia marcescens.
(§10) The nematode's eggs and larvae under the study were subjected to the following treatments for 24 hours:
(§11) 1. Control treatment: chitinase not applied, and air circulated through the valve.
(§12) 2. Chitinase treatment: chitinase at a rate of 0.2 units per replica.
(§13) 3. Sulfide treatment: hydrogen sulfide from Na2S with a 0.2 flux at 0.3 mg/minute.
(§14) 4. Sulfide treatment: hydrogen sulfide from FeS with a 0.2 flux at 0.3 mg/minute.
(§15) 5. Sulfide treatment: hydrogen sulfide from Desulfovibrio desulfuricans with a 0.2 flux at 0.3 mg/minute.
(§16) 6. Combined treatment: simultaneous application of treatments 2 and 3.
(§17) 7. Combined treatment: simultaneous application of treatments 2 and 4.
(§18) 8. Combined treatment: simultaneous application of treatments 2 and 5.
(§19) All the above treatments had 4 replicas.
(§20) Twenty-four hours after starting the experiment the emerging larvae (Haemonchus sp., T. colubriformis and D. viviparous) and the number of live larvae (Melodogyne incognita) in all the treatments, were counted. This value is the mean of the 4 replicas in every treatment. The variance analysis (ANOVA) was applied to the results obtained in each nematode species in the study, separately; the Duncan test (Lerch G. 1977. La Experimentación en las ciencias biológicas y agrícolas. 1^ra edición, p.p. 203-308, Editorial Científico-Técnica, La Habana) was applied, which is also shown in table 1. […]

Haemonchus spp = test: as above; type: cell-based; details: Haemonchus eggs, emerging larvae after 24 hours; fraction E = 1 − Ntto/Nc; mean of 4 replicas
Method: as §1, §7, §2, §3, §4, §8, §9, §10, §11, §12, §13, §14, §15, §16, §17, §18, §19, §20

Structure (SMILES) | Treatment effectiveness (E) (Dictyocaulus viviparus) | Treatment effectiveness (E) (Melodoigyne incognita) | Treatment effectiveness (E) [1] | Treatment effectiveness (E) (Haemonchus spp)
S [3. Esn, hydrogen sulfide] | 0.44 | 0.51 | 0.40 | 0.41
S [4. Esf, hydrogen sulfide] | 0.42 | 0.52 | 0.39 | 0.40
S [5. Esd, hydrogen sulfide] | 0.40 | 0.47 | 0.38 | 0.37

— US8268306B2, “Pesticidal and antiparasitic compositions” (Centro de Ingenieria Genetica y Biotecnologia, priority 2001, dated 2012)
